Results published in paper PMC6035882 (Biochimie, 2018).
pIC50: −log10 of the molar value. Like-named read-outs stand apart in the source and are kept apart here. Each block holds one compound with its values, some of them ahead of it.

What was measured:
Test in all cases: 3H-2-deoxyglucose uptake inhibition in L929 cells
Type in all cases: cell-based
GLUT1 [1] = biological target: T1, GLUT1 (Mus musculus, UniProt P17809)
T1 sequence (P17809 1-492): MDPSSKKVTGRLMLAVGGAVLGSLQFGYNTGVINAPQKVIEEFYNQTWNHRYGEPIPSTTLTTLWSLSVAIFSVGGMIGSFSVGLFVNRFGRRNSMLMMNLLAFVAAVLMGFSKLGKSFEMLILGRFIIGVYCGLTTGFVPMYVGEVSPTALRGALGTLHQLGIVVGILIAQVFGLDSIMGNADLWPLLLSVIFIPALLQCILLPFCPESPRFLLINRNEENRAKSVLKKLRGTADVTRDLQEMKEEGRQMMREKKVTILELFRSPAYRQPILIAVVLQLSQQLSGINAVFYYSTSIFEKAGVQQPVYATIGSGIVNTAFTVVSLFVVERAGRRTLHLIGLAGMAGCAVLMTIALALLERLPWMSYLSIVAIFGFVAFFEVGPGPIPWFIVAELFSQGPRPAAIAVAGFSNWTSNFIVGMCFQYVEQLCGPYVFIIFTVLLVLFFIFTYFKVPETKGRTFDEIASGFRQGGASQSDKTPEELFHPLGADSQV

GLUT1 [2] = biological target: T1, GLUT1; remark: listed apart in the source
GLUT1 [3] = biological target: T1, GLUT1; remark: listed apart in the source

SMILES: Cc1c(NC(=O)c2cc(C(N)=O)nc3cc(F)ccc23)c(C(F)(F)F)nn1Cc1ccc(C#N)cc1 [BAY-876]
pIC50 (GLUT1 [1]): 7.70

pIC50 (GLUT1 [2]): 5.07
SMILES: O=C(Oc1cccc(F)c1OC(=O)c1cccc(O)c1)c1cccc(O)c1 [WZB-117]

SMILES: O=c1c(O)c(-c2ccc(O)c(O)c2)oc2cc(O)cc(O)c12 [quercetin, 3,3′,4′5,7-pentahydroxyflavone]
pIC50 (GLUT1 [3]): 5.07
